This assay has as its system paw edema induced by Naja naja venom phospholipase A2. Put plainly: Phospholipase A2 Rat Paw Edema. The class given is in vivo, Lewis rats. Particulars: 30 mg/kg ip, measured 2 hours after PLA2 injection.

The structures appear in SMILES notation.

For the molecule `CCCCCCCCCCCCCCCCCCOc1cc(OC(=O)C(c2ccccc2)c2ccccc2)cc(C(=O)O)c1` [Example 11, 3-(Octadecyloxy)-5-(2,2-diphenyl-1-oxoethoxy) benzoic acid], the “inhibition of edema (PLA2 rat paw edema)” value came to 29%.
